Measurements published in patent US20060166237A1, “Method of detecting reaction of DNA and DNA-binding protein” (OLYMPUS CORPORATION, priority 2003, published 2006).

Columns and labels:
Assay type in all cases: cell-based
[1] = test system: transcription factor NF-κB in HeLa cell; test: Activation of NF-κB in HeLa cell nucleus by TNF-α and APDC stimulation, FCS readout (Experiment 7-2)
Method: (§1) Two hours after addition of APDC, a tumor necrosis factor TNF-α is added to stimulate HeLa cell for 30 minutes, from which a nucleus extract is prepared. A nucleus extract having a concentration of 5, 10 or 20 μg is prepared. Stimulation on a cell is performed in the following two cases.
(§2) (I) The case where stimulation with only a tumor necrosis factor TNF-α is performed for 30 minutes. A concentration of a tumor necrosis factor TNF-α is 0, 10, 25 or 50 ng/ml.
(§3) (II) The case where stimulation with a tumor necrosis factor TNF-α is performed for 30 minutes, two hours after addition of APDC. A concentration of APDC is 10, 100 or 200 μM relative to a 50 ng/ml of a tumor necrosis factor TNF-α.
[Experiment 7-2] Experiment of a reaction of a (fluorescently labeled) DNA having an […] sequence and a cell nucleus extract. The Experiment was performed using a cell nucleus extract which is extracted under the condition of a different concentration of an added tumor necrosis factor TNF-α and a different concentration of added APDC.
The following shown in Table 29 are used to perform a binding reaction experiment in the same way as Experiment 3-2.

[2] = test system: transcription factor AP-1 in HeLa cell; test: Activation of AP-1 in HeLa cell nucleus by TNF-α and APDC stimulation, FCS readout (Experiment 7-1)
Method: as §1, §2, §3
[Experiment 7-1] Experiment of a reaction of a (fluorescently labeled) DNA having an AP-1-binding sequence and a cell nucleus extract. The Experiment was performed using a cell nucleus extract which is extracted under the condition of a different concentration of an added tumor necrosis factor TNF-α and a different concentration of an added APDC.
The following shown in Table 28 are used to perform a binding reaction experiment in the same way as Experiment 3-1.

[3] = test system: transcription factor NF-κB in HeLa cell; test: Activation of NF-κB in HeLa cell nucleus by TNF-α stimulation time, FCS readout (Experiment 6-2); conditions: 50 ng/ml TNF-α, nucleus extract 20 μg, DNA 30, FIG. 19
Method: (§4) [Experiment 6-2] Experiment of a reaction of a (fluorescently labeled) DNA having an NF-κB-binding sequence and a cell nucleus extract. The Experiment was performed using a cell nucleus extract which is extracted under the condition of a different time length of stimulation with a tumor necrosis factor TNF-α.
In the same way as Experiment 6-1, 50 ng/ml of a tumor necrosis factor TNF-α was added to HeLa cell, and the HeLa cell was stimulated for 0, 15, 30, 60, 120 or 180 minutes. Then, a nucleus extract was prepared from each HeLa cell.
The following shown in Table 27 are used to perform a binding reaction experiment in the same way as Experiment 3-2.

[4] = test system: transcription factor AP-1 in HeLa cell; test: Activation of AP-1 in HeLa cell nucleus by TNF-α stimulation time, FCS readout (Experiment 6-1); conditions: 50 ng/ml TNF-α, nucleus extract 20 μg, DNA 20, FIG. 18
Method: as §4, with “6-1]” for “6-2]”, “AP-1-binding” for “NF-κB-binding”
50 ng/ml of a tumor necrosis factor TNF-α was added to HeLa cell, and the HeLa cell was stimulated for 0, 15, 30, 60, 120 or 180 minutes. Then, a nucleus extract was prepared from each HeLa cell (for preparation method, see Example 3). A concentration of a nucleus extract was set to be 20 μg.
The following shown in Table 26 are used to perform a binding reaction experiment in the same way as Experiment 3-1.

[5] = HeLa cell, APDC 10, 100 or 200 μM with 50 ng/ml TNF-α

Compound	effect of APDC on activation of transcription factor NF-κB by TNF-α [1, 5]	activation of transcription factor AP-1 in cell nucleus extract ([2]; APDC 100 μM and 200 μM, added 2 hours before 50 ng/ml TNF-α for 30 minutes, FIG. 20)	effect of APDC on activation of transcription factor AP-1 by TNF-α [2, 5]	stimulation time giving greatest translational diffusion time (NF-κB sufficiently activated) [3]	stimulation time giving greatest translational diffusion time (AP-1 sufficiently activated) [4]	activation of transcription factor NF-κB in cell nucleus extract ([1]; stimulation with only TNF-α 50 ng/ml for 30 minutes, FIG. 21)
N.S=C(S)N1CCCC1 [APDC, Ammonium pyrrolidinedithiocarbamate]	suppresses activation of a transcription factor NF-κB by a tumor necrosis factor TNF-α	most activated	promotes activation of a transcription factor AP-1 by a tumor necrosis factor TNF-α			
tumor necrosis factor TNF-α				15 min	30 min	most activated
